Assay results taken from patent publication US20220280661A1, “GLUCOCORTICOID RECEPTOR RADIOLIGANDS AND METHODS FOR THEIR PREPARATION AND USE” (The Regents of the University of California, priority 2019, published 2022).
Where two headings read alike, the source gives them in different places.

Molecular target: T1, GR (Homo sapiens, UniProt P04150)
T1 construct: evaluated using ^3H-ligand displacement assays on cells; endogenous in cells; host or cells: DU145
T1 sequence (P04150 1-777): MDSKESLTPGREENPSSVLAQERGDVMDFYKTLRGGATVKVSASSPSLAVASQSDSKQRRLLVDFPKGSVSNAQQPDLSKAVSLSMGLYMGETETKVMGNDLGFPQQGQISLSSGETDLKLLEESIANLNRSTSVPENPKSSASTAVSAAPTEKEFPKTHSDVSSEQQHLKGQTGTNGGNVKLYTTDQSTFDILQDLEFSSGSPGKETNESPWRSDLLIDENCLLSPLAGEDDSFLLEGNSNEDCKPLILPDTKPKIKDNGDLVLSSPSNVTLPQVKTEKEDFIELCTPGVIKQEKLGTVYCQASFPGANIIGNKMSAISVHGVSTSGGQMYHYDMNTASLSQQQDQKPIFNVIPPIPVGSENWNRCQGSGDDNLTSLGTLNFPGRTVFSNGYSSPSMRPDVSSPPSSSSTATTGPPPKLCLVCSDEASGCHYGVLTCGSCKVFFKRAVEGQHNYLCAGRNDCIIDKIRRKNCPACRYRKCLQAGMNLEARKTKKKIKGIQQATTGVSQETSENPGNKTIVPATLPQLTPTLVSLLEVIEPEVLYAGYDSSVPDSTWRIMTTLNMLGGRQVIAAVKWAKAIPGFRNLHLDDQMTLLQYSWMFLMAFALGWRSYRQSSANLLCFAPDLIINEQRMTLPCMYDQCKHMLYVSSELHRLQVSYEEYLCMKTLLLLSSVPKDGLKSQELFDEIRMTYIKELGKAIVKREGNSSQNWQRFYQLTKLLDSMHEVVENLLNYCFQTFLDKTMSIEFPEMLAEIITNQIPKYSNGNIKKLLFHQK
Test: 3H-ligand displacement assay on cells, GR (DU145)
Type: binding
Conditions: for selectivity for GR over other subfamily 3 nuclear hormone receptors: relative affinity
Description: The affinity of YJH08 for GR and the other type 1 subfamily 3 nuclear hormone receptors was evaluated using ^3H-ligand displacement assays on cells. The Kd for subfamily 3 class C nuclear hormone receptors was determined on cells by displacing ^3H-steroidal agonists for the respective receptor. […] The Kd was determined using the following cell lines: DU145 (GR), LNCaP-AR (AR), MCF7 (PR, ER), and HEK293 transiently overexpressing full length human MR.
The cold ligands and ^3H-steroids were co-incubated on cells in PBS at room temperature for one hour. Following incubation, the cells were washed twice with ice cold PBS and the unbound activity was retained for analysis. The cells were lysed with 1 mL of 1M NaOH and collected. Bound and unbound fractions were counted in a liquid scintillation counter and expressed as a percentage of the total activity added per equal relative number of cells. […] These experiments were performed at three concentrations of experimental ligand (1 pM, 100 nM and 10 μM), and a linear extrapolation was used to subtract the non-specific component of binding from each treatment condition. The specific binding component was plotted against the log of the competing ligand and curve fit using a non-linear regression algorithm with PRISM software.

Row | fold more potent than the agonist dexamethasone (GR) | Kd (DU145 cells, 3H-dexamethasone, Reference = dexamethasone, read-out: Kd GR) | Kd (read-out: Kd for GR) | Compound | selectivity for GR over other subfamily 3 nuclear hormone receptors | affinity for GR (in words)
1 | about 10 fold | 401 pM | ~400 pM | COc1cccc2c1-c1ccc3c(c1C(Cc1ccc(F)cc1)O2)C(C)=CC(C)(C)N3 (racemic) [YJH08, 5-(4-fluorobenzyl)-10-methoxy-2,2,4-trimethyl-2,5-dihydro-1H-chromeno[3,4-f]quinoline] | at least 100 fold | 
2 |  |  |  | COc1cccc2c1-c1ccc3c(c1C(Cc1ccc([18F])cc1)O2)C(C)=CC(C)(C)N3 (racemic) [[18F]-YJH08, [^18F]-5-(4-fluorobenzyl)-10-methoxy-2,2,4-trimethyl-2,5-dihydro-1H-chromeno[3,4-f]quinoline] | at least 100 fold | sub nM
